The values below come from patent US12351570B2 (MERCK PATENT GMBH, priority 2018, dated 2025).

pIC50: −log10 of the molar value.

This assay has as its system MDA-MB-231 cells. Kind of assay: Extracellular lactate production inhibition after 4 h, MDA-MB-231. The settings on record: Homo sapiens, MDA-MB-231.
In turn, `Cc1ccc2cccnc2c1S(=O)(=O)Nc1ccccc1C#Cc1ccc(C(=O)N2CCCCC2)nc1` [Compound 385, 7-Methyl-quinoline-8-sulfonic acid {2-[6-(piperidine-1-carbonyl)-pyridin-3-ylethynyl]-phenyl}-amide] had a pIC50 of 4.00 to 6.00.
As for `COc1ccc(S(=O)(=O)Nc2ccccc2C#Cc2ccc(C(=O)N3CCCC3)nc2)c2ncccc12` [Compound 386, 5-Methoxy-quinoline-8-sulfonic acid {2-[6-(pyrrolidine-1-carbonyl)-pyridin-3-ylethynyl]-phenyl}-amide], the pIC50 is 4.00 to 6.00.
The result for `COc1ccc(S(=O)(=O)Nc2ccc(Cl)cc2C#Cc2ccc(C(=O)O)nc2)c(C)c1C` [Compound 387, 5-[5-Chloro-2-(4-methoxy-2,3-dimethyl-benzenesulfonylamino)-phenylethynyl]-pyridine-2-carboxylic acid] reads 7.00 to 8.00; that for `COc1ccc(S(=O)(=O)Nc2ccc(Cl)cc2C#Cc2cnc(C(=O)O)cc2OC)cc1` [Compound 388, 5-[5-Chloro-2-(4-methoxy-benzenesulfonylamino)-phenylethynyl]-4-methoxy-pyridine-2-carboxylic acid], 7.00 to 8.00; that for `COc1cc(C(=O)O)ncc1C#Cc1ccccc1NS(=O)(=O)c1ccc(OC(F)(F)F)c2cccnc12` [Compound 389, 4-Methoxy-5-[2-(5-trifluoromethoxy-quinoline-8-sulfonylamino)-phenylethynyl]-pyridine-2-carboxylic acid], 8.00 to 9.00.
Molecule `COc1ccc(S(=O)(=O)Nc2ccc(Cl)cc2C#Cc2ccc(C(=O)O)nc2)cc1` [Compound 390, 5-[5-Chloro-2-(4-methoxy-benzenesulfonylamino)-phenylethynyl]-pyridine-2-carboxylic acid] gave a pIC50 of 6.00 to 7.00.
`COc1ccc(S(=O)(=O)Nc2ccccc2C#Cc2cnc(C(=O)O)cc2OC)cc1` [Compound 391, 4-Methoxy-5-[2-(4-methoxy-benzenesulfonylamino)-phenylethynyl]-pyridine-2-carboxylic acid] gave a negative-log IC50 (pIC50) of 6.00 to 7.00.
The molecule `COc1ccc(S(=O)(=O)Nc2ccccc2C#Cc2ccc(C(=O)NC(C)C)nc2)c2ncccc12` [Compound 392, 5-[2-(5-Methoxy-quinoline-8-sulfonylamino)-phenylethynyl]-pyridine-2-carboxylic acid isopropylamide] gave a negative logarithm of the IC50 (pIC50) of 6.00 to 7.00.
The molecule `Cc1ccc(NS(=O)(=O)c2c(C)ccc3cccnc23)c(C#Cc2ccc(C(=O)O)nc2)c1` [Compound 393, 5-[5-Methyl-2-(7-methyl-quinoline-8-sulfonylamino)-phenylethynyl]-pyridine-2-carboxylic acid] gave a pIC50 of 8.00 to 9.00.
In turn, `CCNc1cc(C#Cc2ccccc2NS(=O)(=O)c2cccc3cccnc23)cnc1C(=O)O` [Compound 394, 3-(ethylamino)-5-{2-[2-(quinoline-8-sulfonamido)phenyl]ethynyl}pyridine-2-carboxylic acid] had a pIC50 of 8.00 to 9.00.
The molecule `COc1ccc(S(=O)(=O)Nc2ccccc2C#Cc2cnc(C(=O)O)c3ccccc23)c(C)c1C` [Compound 395, 4-[2-(4-Methoxy-2,3-dimethyl-benzenesulfonylamino)-phenylethynyl]-isoquinoline-1-carboxylic acid] had a pIC50 of 6.00 to 7.00.
The result for `Cc1ccc2cccnc2c1S(=O)(=O)Nc1ccccc1C#Cc1ccc(C(=O)OCC(O)CO)nc1` (stereo not shown) [Compound 396, 2,3-dihydroxypropyl 5-{2-[2-(7-methylquinoline-8-sulfonamido)phenyl]ethynyl}pyridine-2-carboxylate] reads 8.00 to 9.00.
Regarding `COc1ccc(NS(=O)(=O)c2ccc(OC)c3cccnc23)c(C#Cc2ccc(C(=O)O)nc2)c1` [Compound 397, 5-[5-Methoxy-2-(5-methoxy-quinoline-8-sulfonylamino)-phenylethynyl]-pyridine-2-carboxylic acid], the pIC50 was 7.00 to 8.00.
`COc1ccc(S(=O)(=O)Nc2ccc(Br)cc2C#Cc2cnc(C(=O)O)c3ccccc23)c(C)c1C` [Compound 398, 4-{2-[5-bromo-2-(4-methoxy-2,3-dimethylbenzenesulfonamido)phenyl]ethynyl}isoquinoline-1-carboxylic acid] gave a pIC50 of 7.00 to 8.00.
The molecule `Cc1ccc2cccnc2c1S(=O)(=O)Nc1ccccc1C#Cc1cnc(C(=O)O)c(CO)c1` [Compound 399, 3-(hydroxymethyl)-5-{2-[2-(7-methylquinoline-8-sulfonamido)phenyl]ethynyl}pyridine-2-carboxylic acid] gave a pIC50 of 6.00 to 7.00.
In turn, `COc1ccc(S(=O)(=O)Nc2ccc(Cl)cc2C#Cc2cnc(C(=O)O)c3ccccc23)c(C)c1C` [Compound 400, 4-[5-Chloro-2-(4-methoxy-2,3-dimethyl-benzenesulfonylamino)-phenylethynyl]-isoquinoline-1-carboxylic acid] showed a pIC50 of 7.00 to 8.00.
The molecule `Cc1ccc2cccnc2c1S(=O)(=O)Nc1ccccc1C#Cc1cnc2c(c1)COC2=O` [Compound 401, 7-methyl-N-[2-(2-{7-oxo-5H,7H-furo[3,4-b]pyridin-3-yl}ethynyl)phenyl]quinoline-8-sulfonamide] had a negative logarithm of the IC50 (pIC50) of 7.00 to 8.00.
Turning to `COc1ccc(S(=O)(=O)Nc2ccccc2C#Cc2cnc(C(=O)O)c(N)c2)c(C)c1C` [Compound 402, 3-amino-5-{2-[2-(4-methoxy-2,3-dimethylbenzenesulfonamido)phenyl]ethynyl}pyridine-2-carboxylic acid], the negative logarithm of the IC50 (pIC50) is 7.00 to 8.00.
`CNc1cc(C#Cc2cc(Cl)ccc2NS(=O)(=O)c2ccc(OC)c(C)c2C)cnc1C(=O)O` [Compound 403, 5-{2-[5-chloro-2-(4-methoxy-2,3-dimethylbenzenesulfonamido)phenyl]ethynyl}-3-(methylamino)pyridine-2-carboxylic acid] gave a pIC50 of 7.00 to 8.00.
For the molecule `Cc1ccc2cccnc2c1S(=O)(=O)Nc1ccccc1C#Cc1ccc(C(=O)OCC2COC(C)(C)O2)nc1` (stereo not shown) [Compound 404, (2,2-dimethyl-1,3-dioxolan-4-yl)methyl 5-{2-[2-(7-methylquinoline-8-sulfonamido)phenyl]ethynyl}pyridine-2-carboxylate], the pIC50 was 6.00 to 7.00.
`COCCOC(=O)c1cc(OC)c(C#Cc2ccccc2NS(=O)(=O)c2ccc(OC)c3cccnc23)cn1` [Compound 405, 2-methoxyethyl 4-methoxy-5-{2-[2-(5-methoxyquinoline-8-sulfonamido)phenyl]ethynyl}pyridine-2-carboxylate] had a pIC50 of 6.00 to 7.00.
The molecule `COc1cc(C(=O)OCC2COC(C)(C)O2)ncc1C#Cc1ccccc1NS(=O)(=O)c1c(C)ccc2cccnc12` (stereo not shown) [Compound 406, (2,2-dimethyl-1,3-dioxolan-4-yl)methyl 4-methoxy-5-{2-[2-(7-methylquinoline-8-sulfonamido)phenyl]ethynyl}pyridine-2-carboxylate] had a pIC50 of 7.00 to 8.00.
The result for `Cc1ccc2cccnc2c1S(=O)(=O)Nc1ccccc1C#Cc1ccc(C(=O)OCCCCN(C)C)nc1` [Compound 407, 4-(dimethylamino)butyl 5-{2-[2-(7-methylquinoline-8-sulfonamido)phenyl]ethyny}pyridine-2-carboxylate] reads 4.00 to 6.00.
Then `COc1cc(C(=O)OCC(O)CO)ncc1C#Cc1ccccc1NS(=O)(=O)c1c(C)ccc2cccnc12` (stereo not shown) [Compound 408, 2,3-dihydroxypropyl 4-methoxy-5-{2-[2-(7-methylquinoline-8-sulfonamido)phenyl]ethynyl}pyridine-2-carboxylate], with 7.00 to 8.00; and `Cc1ccc2cccnc2c1S(=O)(=O)Nc1ccccc1C#Cc1ccc(C(=O)OCCOCCO)nc1` [Compound 409, 2-(2-hydroxyethoxy)ethyl 5-{2-[2-(7-methylquinoline-8-sulfonamido)phenyl]ethynyl}pyridine-2-carboxylate], with 6.00 to 7.00; and `COCCOC(=O)c1ccc(C#Cc2ccccc2NS(=O)(=O)c2c(C)ccc3cccnc23)cn1` [Compound 410, 2-methoxyethyl 5-{2-[2-(7-methylquinoline-8-sulfonamido)phenyl]ethynyl}pyridine-2-carboxylate], with 6.00 to 7.00.
In turn, `CCc1ccc(S(=O)(=O)Nc2ccccc2C#Cc2ccc(C(=O)O)nc2)c2ncccc12` [Compound 411, 5-{2-[2-(5-ethylquinoline-8-sulfonamido)phenyl]ethynyl}pyridine-2-carboxylic acid] gave a pIC50 of 6.00 to 7.00.
The molecule `COCCOC(=O)c1cc(OC)c(C#Cc2ccccc2NS(=O)(=O)c2c(C)ccc3cccnc23)cn1` [Compound 412, 2-methoxyethyl 4-methoxy-5-{2-[2-(7-methylquinoline-8-sulfonamido)phenyl]ethynyl}pyridine-2-carboxylate] gave a negative logarithm of the IC50 (pIC50) of 7.00 to 8.00.
In the case of `COc1ccc(S(=O)(=O)Nc2ccc(C)cc2C#Cc2ccc(C(=O)O)nc2)c(C)c1C` [Compound 413, 5-{2-[2-(4-methoxy-2,3-dimethylbenzenesulfonamido)-5-methylphenyl]ethynyl}pyridine-2-carboxylic acid], the pIC50 was 7.00 to 8.00.
Then `CCCc1ccc(S(=O)(=O)Nc2ccccc2C#Cc2ccc(C(=O)O)nc2)c2ncccc12` [Compound 414, 5-{2-[2-(5-propylquinoline-8-sulfonamido)phenyl]ethynyl}pyridine-2-carboxylic acid], with 7.00 to 8.00; and `Cc1ccc2cccnc2c1S(=O)(=O)Nc1ccccc1C#Cc1cnc(C(=O)O)c2c1NCCN2` [Compound 415, 8-{2-[2-(7-methylquinoline-8-sulfonamido)phenyl]ethynyl}-1H,2H,3H,4H-pyrido[3,4-b]pyrazine-5-carboxylic acid], with 6.00 to 7.00.
Turning to `Cc1ccc2cccnc2c1S(=O)(=O)Nc1ccc(C(C)C)cc1C#Cc1ccc(C(=O)O)nc1` [Compound 416, 5-{2-[2-(7-methylquinoline-8-sulfonamido)-5-(propan-2-yl)phenyl]ethynyl}pyridine-2-carboxylic acid], the pIC50 was 6.00 to 7.00.
The result for `CCc1ccc(NS(=O)(=O)c2c(C)ccc3cccnc23)c(C#Cc2ccc(C(=O)O)nc2)c1` [Compound 417, 5-{2-[5-ethyl-2-(7-methylquinoline-8-sulfonamido)phenyl]ethynyl}pyridine-2-carboxylic acid] reads 8.00 to 9.00; that for `COc1cc(C(=O)O)ncc1C#Cc1ccccc1NS(=O)(=O)c1cccc2c(N(C)C)ccnc12` [Compound 418, 5-[2-(4-Dimethylamino-quinoline-8-sulfonylamino)-phenylethynyl]-4-methoxy-pyridine-2-carboxylic acid], 6.00 to 7.00.

A word on the pIC50: it is the IC50 on a negative log10 scale, so that one unit is a factor of ten. Low values mean a large IC50, high ones a small IC50.
